# Test results: patent publication US8247211B2, “Glycopeptide antibiotics” (American Cyanamid Company, priority 2001, dated 2012)
# How the values were obtained:
# [1] = tested on: Enterococcus sp.; test: In vitro antibacterial evaluation: minimum inhibitory concentration (MIC), broth dilution method; format: cell-based
# How it was run: (§1)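 Broth dilution per NCCLS M7-A2 in Muller-Hinton II […], inoculum 5×10^5 CFU/mL, antibiotic tested over 64-0.06 μg/mL. MIC is taken as the lowest concentration that inhibits growth. Panel includes recent clinical isolates resistant to methicillin, penicillin and/or vancomycin.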
# [2] = tested on: Escherichia coli; test: as above; format: cell-based
# How it was run: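 An MIC is reported for each organism as the least concentration giving inhibition, using broth dilution over 64-0.06 μg/mL with a 5×10^5 CFU/mL inoculum.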
# [3] = tested on: Staphylococcus sp.; test: as above; format: cell-based
# How it was run: as §1
# [4] = tested on: Streptococcus sp.; test: as above; format: cell-based
# How it was run: as §1
# [5] = tested on: Staphylococcus aureus-SMITH (GC 4543); test: Acute lethal infection in mice (ED50); format: in vivo; conditions: female CD-1 mice, intraperitoneal challenge, intravenous dose 30 min. after infection, 7 day survival ratios
# Description: The therapeutic effects of glycopeptide antibiotics of Formula I are determined against acute lethal infections with S. aureus (strain Smith), a penicillin resistant strain of S. pneumoniae (strain GC 1894), and a vancomycin resistant strain of E. fecalis (strain GC 6189 and GC 2246). Female mice, CD-1 (Charles River Laboratories), 20 +1-2 gm, are challenged by intraperitoneal injection of sufficient bacteria (suspended in Trypticase Soy Broth or hog gastric mucin) to kill non-treated controls within 24-48 hr. Antibacterial agents, contained in 0.2 mL of saline or 5% dextrose solution, are administered intravenously 30 min. after infection. Five mice are treated at each dose level. The 7 day survival ratios from 3 separate tests are pooled for calculation of median effective dose (ED50).
# [6] = broth dilution, 18 hours at 35° C.
# [7] = broth dilution, 5×10^5 CFU/mL, 18 hours at 35° C.
# [8] = 5×10^5 CFU/mL, 18 hours at 35° C.
smiles,measurement,setting,value
"CC(c1ccccc1)C1NC(=O)CNC(=O)C(CO)NC(=O)C(CC2CN(Cc3ccccc3)C(=N)N2C2OC(CO)C(O)C(O)C2O)NC(=O)C(CC2CNC(=N)N2)NC(=O)C(Cc2ccc(OC3OC(CO)C(OC4OC5COC6(OC5C(O)C4O)C4CC5CC(C4)CC6C5)C(O)C3O)cc2)NC1=O (stereo not drawn) [Example 80, Cyclo[3-(2-iminoimidazolidin-4-yl)alanyl-3-(1-benzyl-3-hexopyranosyl-2-iminoimidazolidin-4-yl)alanylserylglycyl-β-methylphenylalanyl-O-[4-O-[4,6-O-(2-adamantylidene)hexopyranosyl]hexopyranosyl]tyrosyl]]",MIC Enterococcus faecalis (GC 2242),"[1]; Enterococcus faecalis (GC 2242), broth dilution, 18 hours at 35° C.",32 µg/mL
same,MIC Enterococcus faecalis (GC 2691),"[1]; Enterococcus faecalis (GC 2691), broth dilution, 18 hours at 35° C.",64 µg/mL
same,MIC Enterococcus faecalis (GC 3059),"[1]; Enterococcus faecalis (GC 3059), broth dilution, 18 hours at 35° C.",64 µg/mL
same,MIC Enterococcus faecalis (ATCC 29212),[1]; strain ATCC 29212,64 µg/mL
same,MIC Enterococcus faecalis (GC 2242),[1]; strain GC 2242,32 µg/mL
same,MIC Enterococcus faecium (GC 2243),[1]; strain GC 2243,32 µg/mL
same,MIC Enterococcus faecalis (GC 2691),[1]; strain GC 2691,64 µg/mL
same,MIC Enterococcus faecalis (GC 3059),[1]; strain GC 3059,64 µg/mL
same,MIC Enterococcus faecalis (GC 4552),[1]; strain GC 4552,64 µg/mL
same,MIC Enterococcus faecalis (GC 4553),[1]; strain GC 4553,32 µg/mL
same,MIC Enterococcus faecalis (GC 4554),[1]; strain GC 4554,64 µg/mL
same,MIC Enterococcus faecium (GC 4556),[1]; strain GC 4556,64 µg/mL
same,MIC Enterococcus faecium (GC 4557),[1]; strain GC 4557,16 µg/mL
same,MIC Enterococcus avium (GC 4558),[1]; strain GC 4558,32 µg/mL
same,MIC Enterococcus faecalis (GC 6189),[1]; strain GC 6189,64 µg/mL
same,MIC Escherichia coli (ATCC 25922),[2]; strain ATCC 25922,>64 µg/mL
same,MIC Escherichia coli (GC 4559),[2]; strain GC 4559,>64 µg/mL
same,MIC Escherichia coli (GC 4560),[2]; strain GC 4560,8 µg/mL
same,MIC Coagulase Negative Staphylococcus (GC 4547),[3]; [6],32 µg/mL
same,MIC Coagulase Negative Staphylococcus (GC 4548),[3]; [6],32 µg/mL
same,MIC Coagulase Negative Staphylococcus (GC 4549),[3]; [6],32 µg/mL
same,MIC Coagulase Negative Staphylococcus (GC 4551),[3]; [6],32 µg/mL
same,MIC Coagulase Negative Staphylococcus (GC 6257),[3]; [6],8 µg/mL
same,MIC Staphylococcus aureus (ATCC 29213),[3]; [6],32 µg/mL
same,MIC Staphylococcus aureus (GC 1131),[3]; [6],32 µg/mL
same,MIC Staphylococcus aureus (GC 3051),[3]; [6],32 µg/mL
same,MIC Staphylococcus aureus (GC 3053),[3]; [6],64 µg/mL
same,MIC Staphylococcus aureus (GC 4541),[3]; [6],32 µg/mL
same,MIC Staphylococcus aureus (GC 4542),[3]; [6],32 µg/mL
same,MIC Staphylococcus aureus (GC 4544),[3]; [6],32 µg/mL
same,MIC Staphylococcus aureus (GC 4545),[3]; [6],32 µg/mL
same,MIC Staphylococcus aureus SMITH (GC 4543),[3]; [6],32 µg/mL
same,MIC Staphylococcus haemolyticus (GC 4546),[3]; [6],32 µg/mL
same,MIC Staphylococcus aureus-SMITH (GC 4543),"[3]; strain SMITH GC 4543, broth dilution, 18 hours at 35° C.",32 µg/mL
same,MIC Streptococcus agalactiae (GC 4564),"[4]; Streptococcus agalactiae (GC 4564), broth dilution, 18 hours at 35° C.",8 µg/mL
same,MIC Streptococcus pneumoniae (ATCC 6301),"[4]; Streptococcus pneumoniae (ATCC 6301), broth dilution, 18 hours at 35° C.",8 µg/mL
same,MIC Streptococcus pneumoniae (GC 1894),"[4]; Streptococcus pneumoniae (GC 1894), broth dilution, 18 hours at 35° C.",4 µg/mL
same,MIC Streptococcus pneumoniae (GC 4565),"[4]; Streptococcus pneumoniae (GC 4565), broth dilution, 18 hours at 35° C.",16 µg/mL
same,MIC Streptococcus pyogenes (GC 4563),"[4]; Streptococcus pyogenes (GC 4563), broth dilution, 18 hours at 35° C.",8 µg/mL
same,MIC Streptococcus pneumoniae (ATCC 6301),[4]; strain ATCC 6301,8 µg/mL
same,MIC Streptococcus pneumoniae (GC 1894),[4]; strain GC 1894,4 µg/mL
same,MIC Streptococcus pyogenes (GC 4563),[4]; strain GC 4563,8 µg/mL
same,MIC Streptococcus agalactiae (GC 4564),[4]; strain GC 4564,8 µg/mL
same,MIC Streptococcus pneumoniae (GC 4565),[4]; strain GC 4565,16 µg/mL
same,"median effective dose (ED50), Staphylococcus aureus-SMITH (GC 4543)",[5],>8
COc1ccc(CC2OCC3OC(OC4C(CO)OC(Oc5ccc(CC6NC(=O)C(C(C)c7ccccc7)NC(=O)CNC(=O)C(CO)NC(=O)C(C(O)C7CNC(=N)N7C7OC(CO)C(O)C(O)C7O)NC(=O)C(C(O)C7CNC(=N)N7)NC6=O)cc5)C(O)C4O)C(O)C(O)C3O2)cc1 (stereo not shown) [Example 103],MIC Enterococccus avium (GC 4558),[1]; [7],8 µg/mL
same,MIC Enterococccus faecalis (ATCC 29212),[1]; [7],4 µg/mL
same,MIC Enterococccus faecalis (GC 2691),[1]; [7],8 µg/mL
same,MIC Enterococccus faecalis (GC 3059),[1]; [7],8 µg/mL
same,MIC Enterococccus faecalis (GC 4552),[1]; [7],8 µg/mL
same,MIC Enterococccus faecalis (GC 4553),[1]; [7],8 µg/mL
same,MIC Enterococccus faecalis (GC 4554),[1]; [7],8 µg/mL
same,MIC Enterococccus faecalis (GC 6189),[1]; [7],4 µg/mL
same,MIC Enterococccus faecium (GC 2243),[1]; [7],4 µg/mL
same,MIC Enterococccus faecium (GC 4556),[1]; [7],4 µg/mL
same,MIC Enterococccus faecium (GC 4557),[1]; [7],2 µg/mL
same,MIC Enterococcus faecalis (GC 2242),[1]; [7],4 µg/mL
same,MIC Escherichia coli (ATCC 25922),[2]; [8],64 µg/mL
same,MIC Escherichia coli (GC 4559),[2]; [8],64 µg/mL
same,MIC Escherichia coli (GC 4560),[2]; [8],1 µg/mL
same,MIC Staphylococcus aureus (ATCC 29213),[3]; strain ATCC 29213,2 µg/mL
same,MIC Staphylococcus aureus (GC 1131),[3]; strain GC 1131,2 µg/mL
same,MIC Staphylococcus aureus (GC 3051),[3]; strain GC 3051,1 µg/mL
same,MIC Staphylococcus aureus (GC 3053),[3]; strain GC 3053,2 µg/mL
same,MIC Staphylococcus aureus (GC 4541),[3]; strain GC 4541,2 µg/mL
same,MIC Staphylococcus aureus (GC 4542),[3]; strain GC 4542,2 µg/mL
same,MIC Staphylococcus aureus-SMITH (GC 4543),"[3]; strain GC 4543, 18 hours at 35° C.",1 µg/mL
same,MIC Staphylococcus aureus-SMITH (GC 4543),"[3]; strain GC 4543, broth dilution, 18 hours at 35° C.",1 µg/mL
same,MIC Staphylococcus aureus (GC 4544),[3]; strain GC 4544,2 µg/mL
same,MIC Staphylococcus aureus (GC 4545),[3]; strain GC 4545,1 µg/mL
same,MIC Staphylococcus haemolyticus (GC 4546),[3]; strain GC 4546,1 µg/mL
same,MIC Staphylococcus haemolyticus (GC 4546),"[3]; strain GC 4546, broth dilution, 18 hours at 35° C.",1 µg/mL
same,MIC Coagulase Negative Staphylococcus (GC 4547),[3]; strain GC 4547,2 µg/mL
same,MIC Coagulase Negative Staphylococcus (GC 4547),"[3]; strain GC 4547, broth dilution, 18 hours at 35° C.",2 µg/mL
same,MIC Coagulase Negative Staphylococcus (GC 4548),[3]; strain GC 4548,1 µg/mL
same,MIC Coagulase Negative Staphylococcus (GC 4548),"[3]; strain GC 4548, broth dilution, 18 hours at 35° C.",1 µg/mL
same,MIC Coagulase Negative Staphylococcus (GC 4549),[3]; strain GC 4549,1 µg/mL
same,MIC Coagulase Negative Staphylococcus (GC 4549),"[3]; strain GC 4549, broth dilution, 18 hours at 35° C.",1 µg/mL
same,MIC Coagulase Negative Staphylococcus (GC 4551),[3]; strain GC 4551,2 µg/mL
same,MIC Coagulase Negative Staphylococcus (GC 4551),"[3]; strain GC 4551, broth dilution, 18 hours at 35° C.",2 µg/mL
same,MIC Coagulase Negative Staphylococcus (GC 6257),[3]; strain GC 6257,1 µg/mL
same,MIC Coagulase Negative Staphylococcus (GC 6257),"[3]; strain GC 6257, broth dilution, 18 hours at 35° C.",1 µg/mL
same,MIC Streptococcus agalactiae (GC 4564),[4]; [7],0.5 µg/mL
same,MIC Streptococcus pneumoniae (GC 1894),[4]; [7],0.12 µg/mL
same,MIC Streptococcus pneumoniae (GC 4565),[4]; [7],0.12 µg/mL
same,MIC Streptococcus pneumonine (ATCC 6301),[4]; [7],0.12 µg/mL
same,MIC Streptococcus pyogenes (GC 4563),[4]; [7],0.25 µg/mL
same,"median effective dose (ED50), Staphylococcus aureus-SMITH (GC 4543)",[5],0.28 mg/kg
